Assay results as given in ChEMBL document CHEMBL6177955, “Design, synthesis and biological evaluation of Golgi-targeting anion transporters as inducers of Golgiphagy and apoptosis in cancer cells” (Eur J Med Chem, 2025).
Active and inactive are the calls of the source. The calls are words filed in the database; no cut-off is given here.

How the values were obtained:
[1] = Toxicity in mouse xenografted with human HepG2 cells assessed as creatine kinase (CK) at 5 to 10 mg/kg, ip administered once every 2 days for 21 days; type: organism-based; conditions: in vivo, 504 h, dose 5-10 mg/kg, time 21 day
HepG2 [2] = assay: Induction of apoptosis in human HepG2 cells assessed as early apoptotic cells at 10 uM measured after 24 hrs incubation by Propidium iodide/Annexin V-FITC analysis (reference value: 2.90%); type: functional
HepG2 [3] = assay: Induction of apoptosis in human HepG2 cells assessed as necrotic cells at 10 uM measured after 24 hrs incubation by Propidium iodide/Annexin V-FITC analysis (reference value: 1.14%); type: functional
HepG2 [4] = assay: Suppression of Golgi structural and functional protein expression in human HepG2 cells assessed as decrease in GM130 protein expression at 5 to 20 uM measured after 48 hrs incubation by Western blot analysis; type: cell-based; conditions: dose 5-20 µM
HT-29 = assay: Antiproliferative activity against human HT-29 cells by MTT assay; type: functional, cell-based
HepG2 [5] = assay: Cytotoxicity against human HepG2 cells assessed as cell viability at 1 to 20 uM measured after 24 hrs incubation in presence of chloride anions; type: functional, cell-based; conditions: dose 1-20 µM
HepG2 [6] = assay: Antitumor activity against human HepG2 cells xenografted mouse model assessed as reduction in tumor growth inhibition at 1 mg/kg, ip administered once every 2 days for 21 days relative to control; type: functional; conditions: HepG2, 504 h, time 21 day, read-out: TGI
Lipid bilayer [7] = assay: Vesicular anionophoric activity in Bulky nitrobenzene membrane assessed as induction of relative efflux of chloride ions measured up to 100 hrs by using chloride-selective electrode
[8] = Toxicity in mouse xenografted with human HepG2 cells assessed as histopathological changes in spleen at 5 to 10 mg/kg, ip administered once every 2 days for 21 days by H and E staining based analysis; type: organism-based; conditions: in vivo, 504 h, dose 5-10 mg/kg, time 21 day
Lipid bilayer [9] = assay: Vesicular anionophoric activity in large unilamellar vesicle membrane derived from egg-yolk L-alpha-phosphatidylcholine assessed as induction of relative efflux of chloride ions in presence of sodium (Na+) measured up to 300 seconds by using chloride-selective electrode; conditions: time <= 300.0 sec
A2780 = assay: Antiproliferative activity against human A2780 cells by MTT assay; type: functional, cell-based
Lipid bilayer [10] = assay: Vesicular anionophoric activity in large unilamellar vesicle membrane derived from egg-yolk L-alpha-phosphatidylcholine assessed as induction of relative efflux of chloride ions in presence of rubidium (Rb+) measured up to 300 seconds by using chloride-selective electrode; conditions: time <= 300.0 sec
HepG2 [11] = assay: Antitumor activity against human HepG2 cells xenografted mouse model assessed as reduction GM130 expression in tumor tissue at 5 to 10 mg/kg, ip administered once every 2 days for 21 days; type: functional, organism-based; conditions: dose 5-10 mg/kg, time 21.0 day
Lipid bilayer [12] = assay: Vesicular anionophoric activity in large unilamellar vesicle membrane derived from egg-yolk L-alpha-phosphatidylcholine assessed as induction of relative efflux of chloride ions in presence of cesium (Cs+) measured up to 300 seconds by using chloride-selective electrode; conditions: time <= 300.0 sec
HepG2 [13] = assay: Disruption of homeostasis of chloride anions in golgi apparatus of human HepG2 cells assessed as increase in fluorescence intensity of 6-methoxy-1-(2-oxo-2-((4-sulfamoylphenyl)amino)ethyl)quinolin-1-ium Bromide measured after 12 hts by CLSM imaging analysis; type: functional, cell-based
HepG2 [14] = assay: Effect on dysregulation mediated autophagy in human HepG2 cells assessed as increase in p62 marker expression at 5 to 20 uM measured after 48 hrs incubation by Western blot analysis; type: functional, cell-based; conditions: dose 5-20 µM
HepG2 [15] = assay: Antitumor activity against human HepG2 cells xenografted mouse model assessed as reduction Golgi-associated apoptotic proteins (GAAPs) expression in tumor tissue at 5 to 10 mg/kg, ip administered once every 2 days for 21 days; type: functional, organism-based; conditions: dose 5-10 mg/kg, time 21.0 day
HepG2 [16] = assay: Antitumor activity against human HepG2 cells xenografted mouse model assessed as reduction in tumor weight at 5 to 10 mg/kg, ip administered once every 2 days for 21 days; type: functional, organism-based; conditions: dose 5-10 mg/kg, time 21.0 day
HepG2 [17] = assay: Induction of apoptosis in human HepG2 cells assessed as late apoptotic cells at 10 uM measured after 24 hrs incubation by Propidium iodide/Annexin V-FITC analysis (reference value: 5.71%); type: functional
HepG2 [18] = assay: Induction of autophagosome formation in human HepG2 cells assessed as green fluorescence in Golgi apparatus by measuring pearson co-localization at 10 uM measured after 12 hrs incubation by mCherry-LC3B assay; type: functional
HepG2 [19] = assay: Effect on dysregulation mediated autophagy in human HepG2 cells assessed as increase in LC3B marker expression at 5 to 20 uM measured after 48 hrs incubation by Western blot analysis; type: functional, cell-based; conditions: dose 5-20 µM
HepG2 [20] = assay: Antitumor activity against human HepG2 cells xenografted mouse model assessed as reduction in tumor growth inhibition at 10 mg/kg, ip administered once every 2 days for 21 days relative to control; type: functional; conditions: HepG2, 504 h, time 21 day, read-out: TGI
Lipid bilayer [21] = assay: Vesicular anionophoric activity in large unilamellar vesicle membrane derived from egg-yolk L-alpha-phosphatidylcholine assessed as induction of relative efflux of chloride ions in presence of potassium (K+) measured up to 300 seconds by using chloride-selective electrode; conditions: time <= 300.0 sec
HepG2 [22] = assay: Induction of apoptosis in human HepG2 cells assessed as late apoptotic cells at 5 uM measured after 24 hrs incubation by Propidium iodide/Annexin V-FITC analysis (reference value: 5.71%); type: functional
[23] = Toxicity in mouse xenografted with human HepG2 cells assessed as histopathological changes in liver at 5 to 10 mg/kg, ip administered once every 2 days for 21 days by H and E staining based analysis; type: organism-based; conditions: in vivo, 504 h, dose 5-10 mg/kg, time 21 day
MCF7 = assay: Antiproliferative activity against human MCF7 cells by MTT assay; type: functional, cell-based
Lipid bilayer [24] = assay: Vesicular anionophoric activity in large unilamellar vesicle membrane derived from egg-yolk L-alpha-phosphatidylcholine assessed as induction of relative efflux of chloride ions in presence of lithium (Li+) measured up to 300 seconds by using chloride-selective electrode; conditions: time <= 300.0 sec
HepG2 [25] = assay: Induction of autophagosome formation in human HepG2 cells assessed as green fluorescence in endoplasmic reticulum (ER) by measuring pearson co-localization at 10 uM measured after 12 hrs incubation by mCherry-LC3B assay; type: functional
[26] = Toxicity in mouse xenografted with human HepG2 cells assessed as histopathological changes in lung at 5 to 10 mg/kg, ip administered once every 2 days for 21 days by H and E staining based analysis; type: organism-based; conditions: in vivo, 504 h, dose 5-10 mg/kg, time 21 day
HepG2 [27] = assay: Antiproliferative activity against human HepG2 cells by MTT assay; type: functional, cell-based
[28] = Toxicity in mouse xenografted with human HepG2 cells assessed as body weight change at 5 to 10 mg/kg, ip administered once every 2 days for 21 days; type: organism-based; conditions: in vivo, 504 h, dose 5-10 mg/kg, time 21 day
[29] = Toxicity in mouse xenografted with human HepG2 cells assessed as aspartate aminotransferase (AST) at 5 to 10 mg/kg, ip administered once every 2 days for 21 days; type: organism-based; conditions: in vivo, 504 h, dose 5-10 mg/kg, time 21 day
HCT-8 = assay: Antiproliferative activity against human HCT-8 cells by MTT assay; type: functional, cell-based
HepG2 [30] = assay: Cell cycle arrest in human HepG2 cells assessed as accumulation of cells at G2/M phase at 5 uM measured after 24 hrs incubation by flow cytometric analysis; type: functional
HepG2 [31] = assay: Induction of apoptosis in human HepG2 cells assessed as reduction in Golgi-associated apoptotic proteins (GAAPs) expression measured after 24 hrs by Western blot analysis; type: functional, cell-based

NS(=O)(=O)c1ccc(NC(=O)CCCCCNc2c(Nc3cc(C(F)(F)F)cc(C(F)(F)F)c3)c(=O)c2=O)cc1
Activity [1]: Non-toxic
Activity (HepG2 [2]): 20.2%
Activity (HepG2 [3]): 5.17%
Activity (HepG2 [4]): Active
IC50 (HT-29): > 50 µM
Activity (HepG2 [5]): Active; Cytotoxicity Enhanced In Presence Of Chloride Anions
inhibition in vivo at 1 mg/kg (HepG2 [6]): 41%
Activity (Lipid bilayer [7]): Active; Compound Exhibit Anion Transport Activity Most Probably Through Carrier Mechanism
Activity [8]: Non-toxic
Activity (Lipid bilayer [9]): Active
IC50 (A2780): > 50 µM
Activity (Lipid bilayer [10]): Active
Activity (HepG2 [11]): Active
Activity (Lipid bilayer [12]): Active
EC50 (HepG2 [13]): 13.8 µM
Activity (HepG2 [14]): Active
Activity (HepG2 [15]): Active
Activity (HepG2 [16]): Active
Activity (HepG2 [17]): 24.6%
Activity (HepG2 [18]): 0.83
Activity (HepG2 [19]): Active
inhibition in vivo at 10 mg/kg (HepG2 [20]): 77%
Activity (Lipid bilayer [21]): Active
Activity (HepG2 [22]): 12.9%
Activity [23]: Non-toxic
IC50 (MCF7): 12.7 µM
Activity (Lipid bilayer [24]): Active
Activity (HepG2 [25]): 0.13
Activity [26]: Non-toxic
IC50 (HepG2 [27]): 7.13 µM
Activity [28]: Non-toxic
Activity [29]: Non-toxic
IC50 (HCT-8): > 50 µM
Activity (HepG2 [30]): 6.95%
Activity (HepG2 [31]): Dose-dependent-effect
